# Laboratory results as given in article PMC11565046, “Rational design of 2H-chromene-based antiphytovirals that inhibit virion assembly by outcompeting virus capsid-RNA interactions” (iScience, 2024).
# Like-named read-outs stand apart in the source and are kept apart here.
# How the values were obtained:
# PVY [1] = assay: Curative activity against PVY, half-leaf method on Chenopodium amaranticolor; format: in vivo; details: Potato virus Y, in Chenopodium amaranticolor; 500 μg/mL; Chenopodium amaranticolor leaves; average of three replicates
# From the text: (§1) According to previous reports,[46] PVY was infested in Nicotiana tabacum K326, and PVY was harvested and purified after showing severe infection symptoms on the leaves. The literature-guided protocol was followed to assess the curative, prophylactic, and […] potential of the target compounds under investigation.[15]
# To assess the curative effectiveness against PVY, a uniform layer of 200–300 mesh emery was applied to the leaves of C. amaranticolor, followed by rubbing with a virus solution. For 1.5 h, then the emery was washed off with water. After the leaves naturally dried, a 500 μg/mL solution of the test compound was carefully applied to one side of the leaf, while the opposite side received a 1% Tween 80 solution as a control. The plants were subsequently incubated in a greenhouse maintained at 25°C. After 5−7 days, the presence of necrotic spots on the leaves was recorded, with each compound tested on three replicate plants. The average inhibition rate was determined by analyzing the data from these replications.
# PVY [2] = assay: Protective activity against PVY, half-leaf method on Chenopodium amaranticolor; format: in vivo; details: Potato virus Y, in Chenopodium amaranticolor; 500 μg/mL; Chenopodium amaranticolor leaves; average of three replicates
# Method: as §1
# A 500 μg/mL solution of the targeted compound was delicately applied to one side of C. amaranticolor leaves, while the other side was treated with a 1% Tween 80 aqueous solution. The plants were positioned in a greenhouse set at 25°C. Following a 24 h period, the entire leaf surface was inoculated with PVY by uniformly distributing 200–300 mesh emery. After 1.5 h, the emery was washed off with water, and the plants were returned to the greenhouse. After 5–7 days, the number of necrotic spots was tallied, with the assessment based on the greenhouse population. Each compound was tested in triplicate, and the average inhibition rate was subsequently calculated.
# PVY [3] = assay: Inactivating activity against PVY, half-leaf method on Chenopodium amaranticolor; format: in vivo, potato virus Y; details: for EC50: Potato virus Y, in Chenopodium amaranticolor
# Method: as §1
# Target compound solution (1,000 μg/mL) and 2 × virus solution were combined in equal quantities and incubated for 30 min. Evenly distribute emery onto the leaf blades, and apply the mixture of virus and compound solution onto the right side of C. amaranticolor leaf blades. Following this, an identical quantity of a 1× virus solution was applied to the untreated side of the leaf. Following a duration of 1.5 h, the emery residue present on the leaf surface was removed using a rinsing process utilizing water. The plants were incubated within a controlled greenhouse environment, maintaining a consistent temperature of 25°C. After 5−7 days, they proceeded to statistics the number of necrotic spots on the leaves. For each chemical, triplicate experiments were undertaken, and the average percentage of inhibition was subsequently determined.
# PVY-GFP = assay: Systemic infection of PVY-GFP in Nicotiana benthamiana (UV fluorescence, RT-qPCR); format: in vivo, potato virus Y; details: 500 μg/mL spray, 7 dpai; for Green fluorescence under UV light: N. benthamiana, versus DMSO control; for PVY RNA accumulation level (control normalized as 100%): systemic leaves of N. benthamiana, RT-qPCR
# From the text: To evaluate the effect of C50 on PVY infection, we infiltrated the Nicotiana benthamiana plants with Agrobacterium carrying the PVY infectious clone pCamPVY-GFP. […] The RT-qPCR results for GFP were consistent with that of PVY RNA (Figure 3D).
# The Nicotiana benthamiana plants were subjected to infestation by Agrobacterium tumefaciens, which carried either pCamPVY-GFP or an empty vector (mock). […] At 7 dpai, the leaves of N. benthamiana were looked at for the GFP using a LUYOR UV light (Shanghai, China), and captured in photographs. The foliage was gathered, rapidly frozen with liquid nitrogen, and subsequently preserved in a refrigerator set at a temperature of −80°C.
# Leaf blades of Nicotiana benthamiana were pulverized into fine powder with the aid of liquid nitrogen, followed by the extraction of total RNA from the leaf tissue utilizing Trizol reagent (Invitrogen, California, USA). Subsequently, cDNA synthesis was conducted through reverse transcription with primers and a reverse transcription kit (Vazyme, Nanjing, China). Any potential DNA contamination was effectively removed using a gDNA wipe enzyme (Vazyme, Nanjing, China) as per the manufacturer’s guidelines. RT-qPCR analysis was carried out employing TB Green (TaKaRa, Beijing, China). Detailed information regarding the primers utilized in this investigation can be found in Table S2.
# PVY CP^wt = PVY CP^wt (Potato virus Y, UniProt A0A650FPI8); assay: MST assay for affinity with PVY CP^wt; format: binding
# From the text: Microscale thermophoresis (MST) serves as a potent technique for quantifying the strength of interactions occurring between small molecules and their respective ligands.[19]^,[20] The binding strength between specific target drugs and PVY CP^wt was investigated in vitro using MST, as depicted in Figures 5G and S3. This experimental approach aimed to acquire insights into how target compounds exert their influences against PVY. […] Similarly, the affinity of target compounds for interacting with PVY CP^S125A was tested.
# The PVY CP^wt gene, the wild-type variant of the Potato Virus Y coat protein, was cloned into the pET-32a (+) prokaryotic expression vector. This recombinant vector was then thermally transformed into BL21 (DE3) bacterial host cells for subsequent protein expression. The strains above were cultivated on a liquid Luria-Bertani medium (180 rpm, 37°C). To initiate the expression of PVY CP, isopropyl β-D-1-thiogalactopyranoside (IPTG) was added to the culture medium at a concentration of […] when the optical density at 600 nm (OD600) reached a range between 0.6 and 0.8. This step triggered the production of the PVY CP protein. The induction process was maintained for 10 h (180 rpm, 16°C). The 6 × -His-S-tagged PVY CP^wt were purified using nickel-nitriloacetic acid by high-performance column affinity chromatography. Subsequently, enterokinase was employed to digest the proteins, and the desired target proteins were isolated using His-tag purification resin. Ultimately, the proteins were identified through the employment of a 12% sodium dodecyl sulfate-polyacrylamide gel electrophoresis method. The pET-32a (+) plasmid containing the PVY CP^wt gene was used as a template. […] The mutant protein was purified using the method for the purification of PVY CP^wt, which was PVY CP^S125A.
# The proteins' binding affinity with target chemicals was evaluated using a Monolith NT.115 instrument (Nano Temper, Munich, Germany), utilizing established methods described in literature.[35]^,[48] A concentration of 2.0 mM was selected for the chemicals, and the proteins were tagged with the Monolith TM RED-NHS second-generation labeling kit. The MST assay analyzed the fluorescence intensity of the labeled proteins, focusing on a range from 400 to 1200 to investigate their interactions. The scanning method was conducted using an “LED power” setting of 40% and a temperature that was maintained at 25.0°C.
# PVY CP^S125A = molecular target: T1, PVY CP^S125A (Potato virus Y, UniProt Q02963, S2919A); assay: MST assay for affinity with mutant PVY CP^S125A; details: 25.0°C, read-out: Kd for binding to PVY CP^S125A
# T1 construct: 6xHis (N, cleaved yes); S-tag (N, cleaved yes); thioredoxin (Trx, from pET-32a); made in house; host or cells: E. coli BL21 (DE3)
# T1 sequence (Q02963 2795-3061 S2919A): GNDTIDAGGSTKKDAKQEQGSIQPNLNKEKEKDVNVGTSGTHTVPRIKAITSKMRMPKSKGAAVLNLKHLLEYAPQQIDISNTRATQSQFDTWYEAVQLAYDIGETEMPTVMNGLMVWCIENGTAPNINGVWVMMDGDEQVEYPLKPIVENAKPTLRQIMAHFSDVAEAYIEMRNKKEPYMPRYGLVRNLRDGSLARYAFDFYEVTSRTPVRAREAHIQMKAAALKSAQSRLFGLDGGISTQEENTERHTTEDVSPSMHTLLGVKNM
# [4] = Chenopodium amaranticolor leaves, read-out: EC50 for inactivating activity
# [5] = inactivating activity, Table S1, read-out: Experimental pEC50 (converted)
EC50 (PVY [3]; [4]) [mg/L],EC50 (PVY [3]; [5]) [µM],melting point [°C],Compound,inhibition at 500 µg/mL (PVY [1]) [%],inhibition at 500 µg/mL (PVY [2]) [%],Green fluorescence under UV light (PVY-GFP),PVY RNA accumulation level (control normalized as 100%) (PVY-GFP) [%],Kd (PVY CP^wt) [µM],Kd (PVY CP^S125A) [µM],EC50 for inactivating activity (PVY [3]; Chenopodium amaranticolor leaves) [mg/L],"EC50 (PVY [3]; read-out: EC50 for inactivating activity, Chenopodium amaranticolor leaves) [mg/L]"
682 ± 10,1650,132 to 134,CCCCS(=O)(=O)Nc1ccc(/N=C/c2ccc3c(c2O)C=CC(C)(C)O3)cc1 [Compound C29],60 to 70,60 to 70,–,–,–,–,–,–
754 ± 10.3,1590,141 to 143,CC1(C)C=Cc2c(ccc(/C=N/c3ccc(NS(=O)(=O)c4ccc(Cl)s4)cc3)c2O)O1 [Compound C24],60 to 70,60 to 70,–,–,–,–,–,–
503 ± 12.8,1120,143 to 145,CC1(C)C=Cc2c(ccc(/C=N/c3ccc(NS(=O)(=O)Cc4ccccc4)cc3)c2O)O1 [Compound C28],60 to 70,60 to 70,–,–,–,–,–,–
147 ± 8.3,288,158 to 160,CC1(C)C=Cc2c(ccc(/C=N/c3ccc(NS(=O)(=O)c4ccc(Br)cc4)cc3)c2O)O1 [Compound C34],60 to 70,60 to 70,–,–,–,–,–,–
–,–,–,"CNCC(=O)N[C@@H](CO)C(=O)N[C@H]1[C@H](O)[C@@H](O)[C@H](n2ccc(N)nc2=O)O[C@@H]1C(N)=O [NNM, Ningnanmycin, reference compound]",–,–,noteworthy decrease in green fluorescence,51.8,8.6,–,75.7 ± 4.0,73.7
306 ± 11,631,193 to 195,CC1(C)C=Cc2c(ccc(/C=N/c3ccc(NS(=O)(=O)c4cccc(Cl)c4F)cc3)c2O)O1 [Compound C37],60 to 70,60 to 70,–,–,–,–,–,–
410 ± 9.7,851,193 to 195,Cc1c(Cl)cccc1S(=O)(=O)Nc1ccc(/N=C/c2ccc3c(c2O)C=CC(C)(C)O3)cc1 [Compound C38],60 to 70,60 to 70,–,–,–,–,–,–
492 ± 13.3,951,140 to 142,CC1(C)C=Cc2c(ccc(/C=N/c3ccc(NS(=O)(=O)c4ccc(Br)s4)cc3)c2O)O1 [Compound C10],60 to 70,60 to 70,–,–,–,–,–,–
100 ± 4.5,213,207 to 209,CC1(C)C=Cc2c(ccc(/C=N/c3ccc(NS(=O)(=O)c4cc(F)cc(F)c4)cc3)c2O)O1 [Compound C26],60 to 70,60 to 70,–,–,–,–,–,–

Compound,EC50 (PVY [3]; [4]) [mg/L],EC50 (PVY [3]; [5]) [µM],melting point [°C],inhibition at 500 µg/mL (PVY [1]) [%],inhibition at 500 µg/mL (PVY [2]) [%],Green fluorescence under UV light (PVY-GFP),PVY RNA accumulation level (control normalized as 100%) (PVY-GFP) [%],Kd (PVY CP^wt) [µM],Kd (PVY CP^S125A) [µM],EC50 for inactivating activity (PVY [3]; Chenopodium amaranticolor leaves) [mg/L],"EC50 (PVY [3]; read-out: EC50 for inactivating activity, Chenopodium amaranticolor leaves) [mg/L]"
Cc1ccc(S(=O)(=O)Nc2ccc(/N=C/c3ccc4c(c3O)C=CC(C)(C)O4)cc2)cc1 [Compound C50],53.3 ± 4.3,119,127 to 129,60 to 70,60 to 70,noteworthy decrease in green fluorescence,18.9,1.6,125,–,–
"CC1(C)C=Cc2c(ccc(/C=N/c3ccc(NS(=O)(=O)c4ccc(Cl)cc4)cc3)c2O)O1 [Compound C6, (E)-4-chloro-N-(4-(((5-hydroxy-2,2-dimethyl-2H-chromen-6-yl)methylene)amino)phenyl) benzenesulfonamide]",56.7 ± 4.2,121,139 to 141,–,–,–,–,4.4,312 ± 40.3,–,–
CC(C)=CCCC1(C)C=Cc2c(ccc(/C=N/c3ccc(NS(=O)(=O)c4ccc(C)cc4)cc3)c2O)O1 (stereo not drawn) [Compound C42],503 ± 17,975,95 to 97,–,–,–,–,497,–,–,–
